Assay results published in US7989469B2, “Certain chemical entities, compositions, and methods” (Cytokinetics, Incorporated, priority 2008, dated 2011).

Test system: rabbit skeletal muscle myofibril preparations (approximately 90% fast fibers)
Experiment: Activation of fast skeletal muscle fibers: enzymatic activity of myofibril preparations (PUMA assay system)
Assay type: biochemical
Set-up: unit not given here
Conditions: detergent treated myofibrils at pCa25%, 500 μM ATP; median value (no †)
Procedure, shortened: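 Detergent-skinned, homogenized rabbit skeletal myofibrils (~90% fast fibers) were run at the calcium level giving 25% of maximal rate (pCa25%). Incubation used 500 μM ATP and 40 μM compound, with a kinetic UV absorbance read. Data were normalized to control wells; hits raised the rate by >40% at 40 μM.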

Substance: 6-chloro-7-(5-chloro(3-pyridyl))-1-(ethylpropyl)imidazo[4,5-b]pyridin-2-ol
- AC1.4 Median: 1.899
